pIC50: −log10 of the molar value. Active and inactive are the calls of the source. The calls are words filed in the database; no cut-off is given here.
Legend:
U-937 [1] = experiment: Induction of apoptosis in human U937 cells assessed as caspase 3/7 level at 10 ug/ml after 24 hrs by Caspase-Glo 3/7 assay relative to solvent control; type: functional
U-937 [2] = experiment: Induction of apoptosis in human U937 cells assessed as condensed/fragmented nuclei at 5 ug/ml after 24 hrs using Hoechst 33342 staining by microscopy relative to solvent control; type: functional
U-937 [3] = experiment: Induction of apoptosis in human U937 cells assessed as caspase 3/7 level at 5 ug/ml after 24 hrs by Caspase-Glo 3/7 assay relative to solvent control; type: functional
U-937 [4] = experiment: Induction of apoptosis in human U937 cells assessed as condensed/fragmented nuclei at 10 ug/ml after 24 hrs using Hoechst 33342 staining by microscopy relative to solvent control; type: functional
[5] = Cytotoxicity against human U937 cells after 24 hrs by MTT assay; type: functional, cell-based; conditions: U-937, 24 h
U-937 [6] = experiment: Induction of apoptosis in human U937 cells assessed as DNA fragmentation measured as DNA laddering at 10 ug/ml after 24 hrs by agarose gel electophoresis relative to solvent control; type: functional, cell-based
U-937 [7] = experiment: Induction of apoptosis in human U937 cells assessed as caspase 3/7 level at 25 ug/ml after 24 hrs by Caspase-Glo 3/7 assay relative to solvent control; type: functional
U-937 [8] = experiment: Induction of apoptosis in human U937 cells assessed as condensed/fragmented nuclei at 25 ug/ml after 24 hrs using Hoechst 33342 staining by microscopy relative to solvent control; type: functional
U-937 [9] = experiment: Induction of apoptosis in human U937 cells assessed as DNA fragmentation measured as DNA laddering at 5 ug/ml after 24 hrs by agarose gel electophoresis relative to solvent control; type: functional, cell-based
U-937 [10] = experiment: Induction of apoptosis in human U937 cells assessed as DNA fragmentation measured as DNA laddering at 25 ug/ml after 24 hrs by agarose gel electophoresis relative to solvent control; type: functional, cell-based
U-937 [11] = experiment: Induction of apoptosis in human U937 cells assessed as caspase 3/7 level at 50 ug/ml after 24 hrs by Caspase-Glo 3/7 assay relative to solvent control; type: functional
U-937 [12] = experiment: Induction of apoptosis in human U937 cells assessed as condensed/fragmented nuclei at 50 ug/ml after 24 hrs using Hoechst 33342 staining by microscopy relative to solvent control; type: functional
U-937 [13] = experiment: Induction of apoptosis in human U937 cells assessed as DNA fragmentation measured as DNA laddering at 12 ug/ml after 24 hrs by agarose gel electophoresis relative to solvent control; type: functional, cell-based
U-937 [14] = experiment: Induction of apoptosis in human U937 cells assessed as condensed/fragmented nuclei at 12 ug/ml after 24 hrs using Hoechst 33342 staining by microscopy relative to solvent control; type: functional
U-937 [15] = experiment: Induction of apoptosis in human U937 cells assessed as caspase 3/7 level at 12 ug/ml after 24 hrs by Caspase-Glo 3/7 assay relative to solvent control; type: functional

| Structure (SMILES) | Activity (U-937 [1]) | Activity (U-937 [2]) | Activity (U-937 [3]) | Activity (U-937 [4]) | pIC50 [5] | also measured |
| --- | --- | --- | --- | --- | --- | --- |
| C[C@H](CCCN1CCN(CCO)CC1)[C@H]1CC[C@@]2(C)C3=C(CC[C@]12C)[C@@]1(C)CC[C@H](O)C(C)(C)[C@@H]1CC3 | 1.3% | 7.6% | 1.2% | 6.6% | 5.57 | – |
| CCN(CC)CCC[C@@H](C)[C@H]1CC[C@@]2(C)C3=C(CC[C@]12C)[C@@]1(C)CC[C@H](OC(C)=O)C(C)(C)[C@@H]1CC3 | 4.9% | – | – | 6.9% | 4.79 | Activity (U-937 [6]): Active; Activity (U-937 [7]): 7.3%; Activity (U-937 [8]): 6.6% |
| CCN(CC)CCC[C@@H](C)[C@H]1CC[C@@]2(C)C3=C(CC[C@]12C)[C@@]1(C)CC[C@H](O)C(C)(C)[C@@H]1CC3 | 2.4% | 3.7% | 2.3% | 3% | 5.46 | Activity (U-937 [9]): Active |
| COc1cc([C@@H]2c3cc4c(cc3[C@@H](O[C@@H]3O[C@@H]5CO[C@@H](C)O[C@H]5[C@H](O)[C@H]3O)[C@H]3COC(=O)[C@H]23)OCO4)cc(OC)c1O [ETOPOSIDE] | 5.9% | 23.7% | 6.4% | 24.8% | 5.82 | Activity (U-937 [9]): Active |
| CC(=O)O[C@H]1CC[C@]2(C)C3=C(CC[C@H]2C1(C)C)[C@]1(C)CC[C@H]([C@H](C)CCCN2CCCCC2)[C@@]1(C)CC3 | – | – | – | – | 4.83 | Activity (U-937 [10]): Active; Activity (U-937 [11]): 3.4%; Activity (U-937 [7]): 1.9%; Activity (U-937 [8]): 8.8%; Activity (U-937 [12]): 10.6% |
| C[C@H](CCCN1CCCCC1)[C@H]1CC[C@@]2(C)C3=C(CC[C@]12C)[C@@]1(C)CC[C@H](O)C(C)(C)[C@@H]1CC3 | 2.1% | 7.4% | 2% | 5.5% | 5.72 | Activity (U-937 [9]): Active |
| CC(C)CCC[C@@H](C)[C@H]1CC[C@H]2[C@@H]3C(=O)C=C4C[C@@H](O)CC[C@]4(C)[C@H]3CC[C@]12C [7-OXOCHOLESTEROL] | – | – | – | – | – | Activity (U-937 [13]): Active; Activity (U-937 [14]): 7.3%; Activity (U-937 [15]): 2.2% |
| C[C@H](CCCNc1ccccc1)[C@H]1CC[C@@]2(C)C3=C(CC[C@]12C)[C@@]1(C)CC[C@H](O)C(C)(C)[C@@H]1CC3 | – | – | – | – | 3.88 | – |
| CC(=O)O[C@H]1CC[C@]2(C)C3=C(CC[C@H]2C1(C)C)[C@]1(C)CC[C@H]([C@H](C)CCCN2CCN(CCO)CC2)[C@@]1(C)CC3 | 7.8% | 7.3% | 6.6% | 10.2% | 5.03 | Activity (U-937 [6]): Active |
| CC(=O)O[C@H]1CC[C@]2(C)C3=C(CC[C@H]2C1(C)C)[C@]1(C)CC[C@H]([C@H](C)CCCN2CCOCC2)[C@@]1(C)CC3 | – | – | – | – | 3.83 | – |
| CC(=O)O[C@H]1CC[C@]2(C)C3=C(CC[C@H]2C1(C)C)[C@]1(C)CC[C@H]([C@H](C)CCCNc2ccccc2)[C@@]1(C)CC3 | – | – | – | – | 3.44 | – |
| C[C@H](CCCN1CCOCC1)[C@H]1CC[C@@]2(C)C3=C(CC[C@]12C)[C@@]1(C)CC[C@H](O)C(C)(C)[C@@H]1CC3 | – | – | – | – | 3.89 | – |
| CC[N+]([O-])(CC)CCC[C@@H](C)[C@H]1CC[C@@]2(C)C3=C(CC[C@]12C)[C@@]1(C)CC[C@H](OC(C)=O)C(C)(C)[C@@H]1CC3 | – | – | – | – | 4.68 | Activity (U-937 [10]): Active; Activity (U-937 [11]): 4.3%; Activity (U-937 [7]): 4.4%; Activity (U-937 [8]): 7%; Activity (U-937 [12]): 5% |

— ChEMBL document CHEMBL3400026, “Synthesis of novel 24-amino-25,26,27-trinorlanost-8-enes: cytotoxic and apoptotic potential in U937 cells” (Bioorg Med Chem, 2015)
